From PMC9670909 (ACS Omega, 2022)

Tests used:
Human recombinant MAO-A = target: T1, Human recombinant MAO-A (Homo sapiens, UniProt P21397); test: MAO-A inhibitory assay; assay type: biochemical
T1 sequence (P21397 1-527): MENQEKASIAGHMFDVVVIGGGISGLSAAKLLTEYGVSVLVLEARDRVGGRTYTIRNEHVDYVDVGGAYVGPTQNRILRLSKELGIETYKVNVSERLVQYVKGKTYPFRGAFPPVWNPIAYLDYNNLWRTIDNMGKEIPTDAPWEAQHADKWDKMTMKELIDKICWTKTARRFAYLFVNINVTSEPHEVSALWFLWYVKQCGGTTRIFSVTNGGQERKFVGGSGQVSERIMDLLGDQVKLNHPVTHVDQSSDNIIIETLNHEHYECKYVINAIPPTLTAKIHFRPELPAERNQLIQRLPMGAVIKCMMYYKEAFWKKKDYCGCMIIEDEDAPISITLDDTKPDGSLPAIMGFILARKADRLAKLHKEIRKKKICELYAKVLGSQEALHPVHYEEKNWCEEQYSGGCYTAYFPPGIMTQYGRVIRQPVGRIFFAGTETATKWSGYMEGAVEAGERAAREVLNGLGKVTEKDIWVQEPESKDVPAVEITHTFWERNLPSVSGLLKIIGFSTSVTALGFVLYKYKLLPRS

MAO-B = target: T2, MAO-B (Homo sapiens, UniProt P27338); test: MAO-B inhibitory assay; assay type: biochemical; conditions: MAO-B IC50, kynuramine 30 μM, potassium phosphate buffer pH 7.4, 37 °C, 20 min
T2 sequence (P27338 1-520): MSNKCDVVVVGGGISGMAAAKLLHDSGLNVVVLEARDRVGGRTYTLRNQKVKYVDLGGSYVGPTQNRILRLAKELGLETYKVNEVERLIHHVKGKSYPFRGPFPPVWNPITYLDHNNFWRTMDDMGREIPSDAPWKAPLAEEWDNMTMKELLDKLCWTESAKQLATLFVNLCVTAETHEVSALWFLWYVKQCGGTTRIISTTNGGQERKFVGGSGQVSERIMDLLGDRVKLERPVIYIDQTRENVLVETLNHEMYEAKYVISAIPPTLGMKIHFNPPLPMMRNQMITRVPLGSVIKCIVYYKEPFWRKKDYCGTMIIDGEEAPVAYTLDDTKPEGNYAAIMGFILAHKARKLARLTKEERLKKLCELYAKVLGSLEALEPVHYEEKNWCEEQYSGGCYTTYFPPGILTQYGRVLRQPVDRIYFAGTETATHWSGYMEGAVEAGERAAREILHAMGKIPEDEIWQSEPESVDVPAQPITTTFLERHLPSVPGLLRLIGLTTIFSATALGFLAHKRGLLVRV

| Structure (SMILES) | IC50 (Human recombinant MAO-A) [µM] | IC50 (MAO-B) [µM] |
| --- | --- | --- |
| COc1cc(OC)c(Br)c(C(=O)c2cc(C)cc(OC)c2OC)c1 [compound 16, (2-Bromo-3,5-dimethoxyphenyl)(2,3-dimethoxy-5-methylphenyl)methanone] | 62.1 | > 100 |
| COC(=O)c1c(OC)cc(OC)cc1C(=O)c1cc(C)cc(OC)c1OC [compound 19, Methyl 2-(2,3-dimethoxy-5-methylbenzoyl)-4,6-dimethoxybenzoate] | > 100 | > 100 |
| CCOC(=O)c1c(OC)cc(OC)cc1C(=O)c1cc(C)cc(OC)c1OC [compound 21, Ethyl 2-(2,3-dimethoxy-5-methylbenzoyl)-4,6-dimethoxybenzoate] | 47 | 61.6 |
| COc1cc(C)cc(C(=O)c2cc(OCc3ccccc3)cc(OCc3ccccc3)c2)c1OC [compound 25, (3,5-Bis(benzyloxy)phenyl)(2,3-dimethoxy-5-methylphenyl)methanone] | > 100 | > 100 |
| COc1cc(C)cc(C(=O)c2cc(OCc3ccccc3)cc(OCc3ccccc3)c2Br)c1OC [compound 26, (3,5-Bis(benzyloxy)-2-bromophenyl)(2,3-dimethoxy-5-methylphenyl)methanone] | > 100 | > 100 |
| COc1cc(C)cc(C(=O)c2cc(OCc3ccccc3)cc(OCc3ccccc3)c2C#N)c1OC [compound 27, 2,4-Bis(benzyloxy)-6-(2,3-dimethoxy-5-methylbenzoyl)benzonitrile] | > 100 | > 100 |
| COc1cc(C)cc(C(=O)c2cc(O)cc(O)c2Br)c1O [compound 31, (2-Bromo-3,5-dihydroxyphenyl)(2-hydroxy-3-methoxy-5-methylphenyl)methanone] | 14.8 | 43.7 |
| COCOc1cc(OC)cc(C(=O)c2cc(C)cc(OC)c2OC)c1Br [compound 33, (2-Bromo-5-methoxy-3-(methoxymethoxy)phenyl)(2,3-dimethoxy-5-methylphenyl)methanone] | 27.5 | > 100 |
| COCOc1cc(OC)cc2c1C(=O)NC2(O)c1cc(C)cc(OC)c1OC (stereo not drawn) [compound 35, 3-(2,3-Dimethoxy-5-methylphenyl)-3-hydroxy-5-methoxy-7-(methoxymethoxy)isoindolin-1-one] | > 100 | > 100 |
| COc1cc(O)c2c(c1)C(O)(c1cc(C)cc(OC)c1OC)NC2=O (stereo not drawn) [compound 36, 3-(2,3-Dimethoxy-5-methylphenyl)-3,7-dihydroxy-5-methoxyisoindolin-1-one] | 31.9 | 38.4 |
| COCOc1cc(OCc2ccccc2)cc(C(=O)c2cc(C)cc(OC)c2OCc2ccccc2)c1Br [compound 37, (5-(Benzyloxy)-2-bromo-3-(methoxymethoxy)phenyl) (2-(benzyloxy)-3-methoxy-5-methylphenyl)methanone] | 52.2 | 18.6 |
| COc1cc(C)cc(C(=O)c2cc(OCc3ccccc3)cc(O)c2Br)c1OCc1ccccc1 [compound 38, (5-(Benzyloxy)-2-bromo-3-hydroxyphenyl) (2-(benzyloxy)-3-methoxy-5-methylphenyl)methanone] | 20.6 | 94.3 |
| COc1cc(OCc2ccccc2)cc(C(=O)c2cc(C)cc(OC)c2OCc2ccccc2)c1C#N [compound 40, (5-(Benzyloxy)-2-cyano-3-methoxyphenyl) (2-(benzyloxy)-3-methoxy-5-methylphenyl)methanone] | > 100 | > 100 |

The next lines start with the values.

| IC50 (Human recombinant MAO-A) [µM] | IC50 (MAO-B) [µM] | Structure (SMILES) |
| --- | --- | --- |
| > 100 | 52.8 | COc1cc(OC)c2c(c1)C(O)(c1cc(C)cc(OC)c1OC)OC2=O (stereo not drawn) [compound 12, 3-(2,3-Dimethoxy-5-methylphenyl)-3-hydroxy-5,7-dimethoxyisobenzofuran-1(3H)-one] |
| > 100 | > 100 | COc1cc(OC)c(C#N)c(C(=O)c2cc(C)cc(OC)c2OC)c1 [compound 17, 2-(2,3-Dimethoxy-5-methylbenzoyl)-4,6-dimethoxybenzonitrile] |
| 34.1 | 53.6 | COCOc1cc(O)cc(C(=O)c2cc(C)cc(OC)c2O)c1Br [compound 32, (2-Bromo-5-hydroxy-3-(methoxymethoxy)phenyl) (2-hydroxy-3-methoxy-5-methylphenyl)methanone] |
| 24.8 | > 100 | COCOc1cc(OC)cc(C(=O)c2cc(C)cc(OC)c2OC)c1C#N [compound 34, 2-(2,3-Dimethoxy-5-methylbenzoyl)-4-methoxy-6-(methoxymethoxy)benzonitrile] |
| > 100 | > 100 | COc1cc(OCc2ccccc2)cc(C(=O)c2cc(C)cc(OC)c2OCc2ccccc2)c1Br [compound 39, (5-(Benzyloxy)-2-bromo-3-methoxyphenyl) (2-(benzyloxy)-3-methoxy-5-methylphenyl)methanone] |
